For one test, the target named is T1, rat NaPi-2b (Rattus norvegicus, UniProt Q9JJ09).
T1 construct: expressed in transfected cells; host or cells: Xenopus oocytes injected with cRNA
T1 sequence (Q9JJ09 1-695): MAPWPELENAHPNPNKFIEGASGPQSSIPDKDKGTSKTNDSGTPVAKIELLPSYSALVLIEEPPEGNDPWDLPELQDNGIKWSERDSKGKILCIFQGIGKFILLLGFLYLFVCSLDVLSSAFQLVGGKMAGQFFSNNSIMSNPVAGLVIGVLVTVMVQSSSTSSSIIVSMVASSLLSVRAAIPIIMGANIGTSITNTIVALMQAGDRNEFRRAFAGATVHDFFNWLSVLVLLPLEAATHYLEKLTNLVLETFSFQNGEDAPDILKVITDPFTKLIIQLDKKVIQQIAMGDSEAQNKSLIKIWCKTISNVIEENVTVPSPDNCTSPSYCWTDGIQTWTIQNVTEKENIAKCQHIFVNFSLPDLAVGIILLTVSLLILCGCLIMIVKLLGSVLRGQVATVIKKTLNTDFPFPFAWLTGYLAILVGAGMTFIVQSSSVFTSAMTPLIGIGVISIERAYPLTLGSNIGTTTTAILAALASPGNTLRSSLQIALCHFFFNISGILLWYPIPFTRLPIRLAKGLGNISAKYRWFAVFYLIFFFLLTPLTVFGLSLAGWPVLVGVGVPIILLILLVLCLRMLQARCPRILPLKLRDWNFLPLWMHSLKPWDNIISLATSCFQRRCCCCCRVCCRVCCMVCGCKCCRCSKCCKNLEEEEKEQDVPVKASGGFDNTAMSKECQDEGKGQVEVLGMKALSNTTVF
As to the kind of experiment: Sodium-dependent phosphate uptake of Xenopus oocytes which expressed NaPi-2b (32P). It counts as cell-based. The note with it: Xenopus oocytes expressing rat NaPi-2b, 32P radioactive phosphorus; read-out: IC50 (phosphate uptake inhibitory activity). The gist of the method:
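Rat small-intestine NaPi-2b cRNA injected into Xenopus oocytes, expressed for 2 days. Sodium-dependent phosphate uptake measured with 32P; % inhibition at 300 and 100 μM taken from the same inhibition curve.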

A further test concerns the target T2, human NaPi-2a (Homo sapiens, UniProt Q06495).
T2 construct: expressed in transfected cells
T2 sequence (Q06495 1-639): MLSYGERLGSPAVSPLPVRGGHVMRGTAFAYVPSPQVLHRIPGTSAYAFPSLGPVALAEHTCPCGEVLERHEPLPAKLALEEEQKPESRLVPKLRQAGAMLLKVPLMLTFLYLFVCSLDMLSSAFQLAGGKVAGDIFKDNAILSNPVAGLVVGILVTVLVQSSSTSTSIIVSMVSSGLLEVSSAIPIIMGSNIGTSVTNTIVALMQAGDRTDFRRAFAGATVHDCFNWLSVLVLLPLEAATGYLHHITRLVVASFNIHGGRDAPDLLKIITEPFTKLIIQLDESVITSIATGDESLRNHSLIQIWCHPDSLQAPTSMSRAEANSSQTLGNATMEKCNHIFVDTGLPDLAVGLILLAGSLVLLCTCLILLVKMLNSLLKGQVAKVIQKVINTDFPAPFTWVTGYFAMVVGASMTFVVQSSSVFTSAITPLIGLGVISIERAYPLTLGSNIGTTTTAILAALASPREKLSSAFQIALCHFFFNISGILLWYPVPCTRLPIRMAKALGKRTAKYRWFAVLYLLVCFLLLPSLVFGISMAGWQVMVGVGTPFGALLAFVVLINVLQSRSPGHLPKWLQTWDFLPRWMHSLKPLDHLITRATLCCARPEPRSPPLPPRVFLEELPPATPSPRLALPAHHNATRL
As to the kind of experiment: Sodium-dependent phosphate uptake of Xenopus oocytes which expressed NaPi-2a (32P). Format: cell-based. The note with it: phosphate uptake, Xenopus oocytes expressing human NaPi-2a; five concentration levels. The source says: Experiment of Sodium-Dependent Phosphate Uptake of Xenopus oocytes which Expressed NaPi-2a
In the test, a group with the addition of choline chloride (Choline Cl) was used as a negative control for nonspecific uptake, and PFA (phosphonoformic acid) was used as a positive control for phosphate transport inhibition.

`Cc1ccc(/C=N/NC(=O)c2c(C)csc2NC(=O)c2cccc(CN(CCO)CCO)c2)cc1` [Compound 787, 3-{[Bis-(2-hydroxy-ethyl)-amino]-methyl}-N-[4-methyl-3-(4-methyl-benzylidene-hydrazinocarbonyl)-thiophen-2-yl]-benzamide]: the concentration for half-maximal inhibition (IC50) on rat NaPi-2b was 1690 nM; at human NaPi-2a, < 3000 nM.
On the same counts, the results for `O=C(Nc1ccc(N2CCCCC2)cc1C(=O)N/N=C/c1cccc(F)c1)c1cccc(CSCCO)c1` [Compound 883, N-[2-(3-Fluoro-benzylidene-hydrazinocarbonyl)-4-piperidin-1-yl-phenyl]-3-(2-hydroxy-ethylsulfanylmethyl)-benzamide] are 40 nM and 1980 nM.
For `Cc1ccc(/C=N/NC(=O)c2cc(N3CCCCC3)ccc2NC(=O)c2cccc(CSCC(O)CO)c2)cc1` (centres unmarked) [Compound 900, 3-(2,3-Dihydroxy-propylsulfanylmethyl)-N-[2-(4-methyl-benzylidene-hydrazinocarbonyl)-4-piperidin-1-yl-phenyl]-benzamide], in that order: < 1000 nM and 2530 nM.
Regarding `CCN(CC)CCN(C)Cc1cccc(C(=O)Nc2ccc(N3CCCCC3)cc2C(=O)N/N=C/c2ccc(Cl)c(C(F)(F)F)c2)c1` [Compound 862, N-[2-(4-Chloro-3-trifluoromethyl-benzylidene-hydrazinocarbonyl)-4-piperidin-1-yl-phenyl]-3-{[(2-diethylamino-ethyl)-methyl-amino]-methyl}-benzamide], the IC50 at rat NaPi-2b was found to be 350 nM; against human NaPi-2a, 1650 nM.
As for `COc1ccc(/C=N/NC(=O)c2cc(F)ccc2NC(=O)c2cccc(CN(CC(C)O)CC(C)O)c2)cc1` (centres unmarked) [Compound 990, 3-{[Bis-(2-hydroxy-propyl)-amino]-methyl}-N-[4-fluoro-2-(4-methoxy-benzylidene-hydrazinocarbonyl)-phenyl]-benzamide], the results for the IC50 on rat NaPi-2b and at human NaPi-2a were < 3000 nM and 7140 nM, respectively.
On to `Cc1csc(NC(=O)c2cccc(CN3CCN(c4ncccn4)CC3)c2)c1C(=O)N/N=C/c1ccc(Cl)c(C(F)(F)F)c1` [Compound 830, N-[3-(4-Chloro-3-trifluoromethyl-benzylidene-hydrazinocarbonyl)-4-methyl-thiophen-2-yl]-3-(4-pyrimidin-2-yl-piperazin-1-ylmethyl)-benzamide], for which the results for the IC50 at rat NaPi-2b and on human NaPi-2a were 4810 nM and 10700 nM, respectively.
For `O=C(Nc1ccc(Br)cc1C(=O)N/N=C/c1ccc(Cl)c(C(F)(F)F)c1)c1ccc(CSc2ccncc2)cc1` [Compound 260, N-[4-Bromo-2-(4-chloro-3-trifluoromethyl-benzylidene-hydrazinocarbonyl)-phenyl]-4-(pyridin-4-ylsulfanylmethyl)-benzamide], in that order: < 3000 nM and < 3000 nM.
As for `O=C(Nc1ccc(N2CCCCC2)cc1C(=O)N/N=C/c1ccc(Cl)c(C(F)(F)F)c1)c1cccc(CSCC(O)CO)c1` (centres unmarked) [Compound 903, N-[2-(4-Chloro-3-trifluoromethyl-benzylidene-hydrazinocarbonyl)-4-piperidin-1-yl-phenyl]-3-(2,3-dihydroxy-propyl-sulfanylmethyl)-benzamide], the IC50 at rat NaPi-2b and against human NaPi-2a was < 1000 nM each time.
As for `Cc1ccc(/C=N/NC(=O)c2cc(N3CCCCC3)ccc2NC(=O)c2cccc(CSCCO)c2)cc1C` [Compound 880, N-[2-(3,4-Dimethyl-benzylidene-hydrazinocarbonyl)-4-piperidin-1-yl-phenyl]-3-(2-hydroxy-ethylsulfanylmethyl)-benzamide], the half-maximal inhibitory concentration (IC50) on rat NaPi-2b was found to be 80 nM; against human NaPi-2a it was 1300 nM.
For the compound `CCN(CC)CCN(C)Cc1cccc(C(=O)Nc2ccc(N3CCCCC3)cc2C(=O)N/N=C/c2ccc(C)cc2)c1` [Compound 859, 3-{[(2-Diethylamino-ethyl)-methyl-amino]-methyl}-N-[2-(4-methyl-benzylidene-hydrazinocarbonyl)-4-piperidin-1-yl-phenyl]-benzamide], the IC50 is 390 nM on rat NaPi-2b and 1600 nM against human NaPi-2a.
For `Cc1ccc(/C=N/NC(=O)c2c(C)csc2NC(=O)c2cccc(CN(C)C)c2)cc1C` [Compound 822, 3-Dimethylaminomethyl-N-[3-(3,4-dimethyl-benzylidene-hydrazinocarbonyl)-4-methyl-thiophen-2-yl]-benzamide], in that order: 5900 nM and 18000 nM.
On to `CC(O)CN(Cc1cccc(C(=O)Nc2sc3c(c2C(=O)N/N=C/c2cccc(F)c2)CCCC3)c1)CC(C)O` (centres unmarked) [Compound 630, 3-{[Bis-(2-hydroxy-propyl)-amino]-methyl}-N-[3-(3-fluoro-benzylidene-hydrazinocarbonyl)-4,5,6,7-tetrahydro-benzo[b]thiophen-2-yl]-benzamide], for which the concentration for half-maximal inhibition (IC50) on rat NaPi-2b was < 1000 nM; against human NaPi-2a, 3500 nM.
On the same counts, the results for `Cc1ccc(/C=N/NC(=O)c2c(C)csc2NC(=O)c2cccc(CN(CCO)CCO)c2)cc1C` [Compound 786, 3-{[Bis-(2-hydroxy-ethyl)-amino]-methyl}-N-[3-(3,4-dimethyl-benzylidene-hydrazinocarbonyl)-4-methyl-thiophen-2-yl]-benzamide] are 1330 nM and < 3000 nM.
On the same counts, the results for `O=C(Nc1sc2c(c1C(=O)N/N=C/c1cccc(F)c1)CCCC2)c1cccc(CN2CCC(CO)CC2)c1` [Compound 642, N-[3-(3-Fluoro-benzylidene-hydrazinocarbonyl)-4,5,6,7-tetrahydro-benzo[b]thiophen-2-yl]-3-(4-hydroxymethyl-piperidin-1-ylmethyl)-benzamide] are 2140 nM and 13300 nM.
For `Cc1ccc(/C=N/NC(=O)c2c(NC(=O)c3cccc(CN(CC(C)O)CC(C)O)c3)sc3c2CCCC3)cc1` (centres unmarked) [Compound 628, 3-{[Bis-(2-hydroxy-propyl)-amino]-methyl}-N-[3-(4-methyl-benzylidene-hydrazinocarbonyl)-4,5,6,7-tetrahydro-benzo-[b]thiophen-2-yl]-benzamide], the IC50 at rat NaPi-2b was 1290 nM; at human NaPi-2a it was 3590 nM.
For `Cc1ccc(/C=N/NC(=O)c2cc(N3CCCCC3)ccc2NC(=O)c2cccc(CN3CCc4nc5ncccc5cc4C3)c2)cc1` [Compound 894, 3-(7,8-Dihydro-5H-1,6,9-triaza-anthracen-6-ylmethyl)-N-[2-(4-methyl-benzylidene-hydrazinocarbonyl)-4-piperidin-1-yl-phenyl]-benzamide], in that order: 500 nM and 3610 nM.
On the same counts, the results for `Cc1ccc(/C=N/NC(=O)c2c(NC(=O)c3cccc(CN(CC(C)O)CC(C)O)c3)sc(C)c2C)cc1` (centres unmarked) [Compound 845, 3-{[Bis-(2-hydroxy-propyl)-amino]-methyl}-N-[4,5-dimethyl-3-(4-methyl-benzylidene-hydrazinocarbonyl)-thiophen-2-yl]-benzamide] are < 3000 nM and < 3000 nM.
For `O=C(O)CSCc1cccc(C(=O)Nc2ccc(N3CCCCC3)cc2C(=O)N/N=C/c2ccc(Cl)c(C(F)(F)F)c2)c1` [Compound 891, {3-[2-(4-Chloro-3-trifluoromethyl-benzylidene-hydrazinocarbonyl)-4-piperidin-1-yl-phenylcarbamoyl]-benzylsulfanyl}-acetic acid], in that order: 1470 nM and 13900 nM.
Take `Cc1ccc(/C=N/NC(=O)c2cc(N3CCCCC3)ccc2NC(=O)c2cccc(CN3CCc4nc5ncccc5cc4C3)c2)cc1C` [Compound 893, 3-(7,8-Dihydro-5H-1,6,9-triaza-anthracen-6-ylmethyl)-N-[2-(3,4-dimethyl-benzylidene-hydrazinocarbonyl)-4-piperidin-1-yl-phenyl]-benzamide]: the results for the IC50 on rat NaPi-2b and against human NaPi-2a were < 300 nM and 5110 nM, respectively.

The term IC50 denotes the concentration needed to halve the response being measured.
